Among the data in US20240415819A1, “MACROCYCLIC COMPOUNDS AS PROTEASOME SUBUNIT BETA TYPE-5 INHIBITORS” (Lead Discovery Center GmbH, priority 2021, published 2024) are IC50 values, retold here.

The target in assay [1] is T1, β5 subunit of the human immunoproteasome (IPS) (Homo sapiens, UniProt P28062).
T1 construct: purchased Boston Biochem E-370
The assay is described as follows: β5 inhibition assay, human immunoproteasome (Suc-LLVY-AMC). Type of assay: biochemical. As to conditions: IC50 class, Suc-LLVY-AMC substrate. An outline of the steps:
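Human immunoproteasome (1 nM final) was preincubated 10 min at RT with compound in 100 mM HEPES pH 7.5, 50 mM NaCl, 0.02% SDS, 1 mM DTT. Suc-LLVY-AMC (22.6 μM final) was then added for 4 h at RT in the dark. After stopping with 1 μM bortezomib, AMC fluorescence was read (ex 355/em 460 nm).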

For assay [2], the system named is HT-29 cells. The assay can be described thus: CellTiter-Glo luminescent cell viability assay with HT-29 cells (72h incubation). Type of assay: cell-based, human. The following applies: Homo sapiens, HT-29, HT29 cells, read-out: CTG HT29. The gist of the method: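 400 cells per well in DMEM/10% FCS were dosed after 24 h and kept 72 h at 37 °C, 5% CO2. ATP-based luminescence (CellTiter-Glo) normalized to DMSO and 10 μM staurosporine controls; IC50 by dose-response fit.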
(In general: In ATP-based viability assays light output follows the ATP content of the culture.)

Assay [3] relates to hPMBC. The assay is described as follows: Chymotrypsin-like ProteasomeGlo assay in hPBMC. The format is cell-based. The following applies: Homo sapiens; read-out: Pglo hPBMC. The gist of the method: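 B cells isolated from human PBMC (buffy coats, density gradient, magnetic isolation). Cells treated with compound for 105 min at 37 °C, with staurosporine and DMSO included. Chymotrypsin-like proteasome activity read by luminescence with Suc-LLVY-Glo substrate to derive IC50.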

pIC50: −log10 of the molar value.

As for `Cc1ccc2cc1CNC(=O)[C@H](CCc1ccccc1)NC(=O)[C@@H](NC(=O)OCc1ccccc1)CC(=O)N1CCC[C@H](CCO2)C1` [Compound 292, benzyl ((13R,9S,12S)-5^4-methyl-8,11,14-trioxo-9-phenethyl-4-oxa-7,10-diaza-1(3,1)-piperidina-5(1,3)-benzenacyclotetradecaphane-12-yl)carbamate], the pIC50 in assay [1], in assay [2] and in assay [3] was more than 7.00 throughout.
On to `Cc1ccc2cc1CNC(=O)[C@H](CCc1ccccc1)NC(=O)[C@@H](NC(=O)OCC1(C)COC1)CC(=O)N1CCCC(CCO2)C1` (stereo partly drawn) [Compound 293, (3-methyloxetan-3-yl)methyl ((9S,12S)-5^4-methyl-8,11,14-trioxo-9-phenethyl-4-oxa-7,10-diaza-1(3,1)-piperidina-5(1,3)-benzenacyclotetradecaphane-12-yl)carbamate], for which the pIC50 in assay [1], in assay [2] and in assay [3] was more than 7.00 throughout.
Take `CC(=O)N[C@H]1CC(=O)N2CCCC(CCOc3ccc(C)c(c3)CNC(=O)C(c3cnn(Cc4ccccc4)c3)NC1=O)C2` (stereo partly drawn) [Compound 565, N-((12S)-9-(1-benzyl-1H-pyrazol-4-yl)-5^4-methyl-8,11,14-trioxo-4-oxa-7,10-diaza-1(3,1)-piperidina-5(1,3)-benzenacyclotetradecaphane-12-yl)acetamide]: the pIC50 in assay [1] is more than 7.00; in assay [2] it was more than 7.00; in assay [3], 6.30 to 7.00.
Consider `Cc1ccc2cc1CNC(=O)[C@H](CCc1ccccc1)NC(=O)[C@H](NC(=O)OCc1ccccc1)CC(=O)N1CCC[C@H](CCO2)C1` [Compound 291, benzyl ((13R,9S,12R)-5^4-methyl-8,11,14-trioxo-9-phenethyl-4-oxa-7,10-diaza-1(3,1)-piperidina-5(1,3)-benzenacyclotetradecaphane-12-yl)carbamate], for which the pIC50 in assay [1] was more than 7.00; in assay [2], more than 7.00; in assay [3], 5.30 to 6.00.
In the case of `CCC(C(=O)N[C@H]1CC(=O)N2CCCC(CCOc3ccc(C)c(c3)CNC(=O)[C@H](CCc3ccccc3)NC1=O)C2)c1ccc(OC)c(OC)c1` (stereo partly drawn) [Compound 64, 2-(3,4-dimethoxyphenyl)-N-((9S,12S)-5^4-methyl-8,11,14-trioxo-9-phenethyl-4-oxa-7,10-diaza-1(3,1)-piperidina-5(1,3)-benzenacyclotetradecaphane-12-yl)butanamide], the pIC50 in assay [1], in assay [2] and in assay [3] was more than 7.00 throughout.
